Reference: patent publication US20250123282A1, “METHODS FOR EVALUATION AND TREATMENT OF TYROSINE KINASE INHIBITOR (TKI)-RESISTANT ACUTE MYELOID LEUKEMIA” (LOMA LINDA UNIVERSITY, priority 2021, published 2025)

What was measured:
[1] = tested on: MV4-11 cells; assay: qPCR analyses of gene expression changes in TKI-treated MV4-11; assay type: cell-based, human
Source text: MV4-11 cells (3 days after TKI treatment) were harvested and analyzed by reverse transcription quantitative polymerase chain reaction (qPCR). The qPCR data of four genetic aspects including cell death, kinases specialized in phosphorylation of BAD, JAK/STAT signaling pathway, and intrinsic inhibitory pathways were compared. […] Next, to investigate which kinases are responsible for the phosphorylation of BAD (pBAD) after TKI treatment, screenings of those kinase candidates reported to phosphorylate BAD under physiological conditions were conducted. […] Elevated gene expressions of both PIM2 and PIM3 have been found in adult AML patients associated with poor survival.
(§1) Small Molecular Inhibitors and in vitro & ex vivo Treatment. […] The dose of 80 nM for the four TKIs was selected based on their dose-dependent cytotoxicity in previous reports. […] Both GILT and QUIZ were reported to start to suppress the tumorigenic clustering and c-Kit at the dose of 80 nM. […] The combination of 5 μM 5-Azacitidine (AZA) and 80 nM 1α,25-Dihydroxyvitamin D3 (VD3) was added to the experimental group similar to the previous report. As combination agents to treat blasts in vitro, one dose of 80 nM GILT with one dose of either 100 nM Venetoclax (BCL2 inhibitor), 10 μM (R)-Lisofylline (STAT4 inhibitor), 100 nM AZD1208 (PIM inhibitor), 500 nM PF-06826647 (TYK2 inhibitor), or 500 nM AT9283 (JAK2/3 inhibitor) were added to 1 ml of 1×10^6 cells for each experimental group in 24 well plates. Three days after the one dose treatment, cells were then collected for either analyses by FACS and qPCR, or re-plated into 24 well plates for continued culture. At different time points, re-plated cells were collected for analyses by FACS and qPCR. Medium change was performed every 2-3 days.
RNA Isolation and Real-Time Polymerase Chain Reaction (qPCR) analysis. MV4-11 and MOLM-14 cells were cultured with the presence of TKI drugs for 72 hours or re-plated 28 days after the treatment of TKI drugs. Cells were isolated for RNA isolation and qPCR analysis as previously described. Total RNA was isolated using the RNeasy Micro Kit (Qiagen) according to the manufacturer's instruction. First-strand cDNA was synthesized using the SuperScript III Reverse Transcriptase (Invitrogen; Life Technologies). With an Applied Biosystems 7900HT Real-Time PCR machine, qPCR was performed and analyzed using known primers for the specific markers. The PCR conditions were 10 minutes at 95° C. followed by 40 cycles of 10 seconds at 95° C. and 15 seconds at 60° C. The relative expression level of a gene was determined using the ΔΔCt method and normalized to GAPDH.

[2] = tested on: MV4-11 cells; assay: FACS time course of CD44+pBAD+ and Ki67+CD33+CD44+ populations in TKI-treated MV4-11; assay type: cell-based, human
Source text: To follow the cell fate of TKI-treated MV4-11 and MOLM-14, culturing of blasts were continued by performing medium change every 2-3 days. […] The BAD protein is a pro-apoptotic member of the BCL-2 gene family, which is involved in initiating apoptosis. Dephosphorylated BAD is pro-apoptotic by binding BCL-2 and inactivating BCL-2, while phosphorylated BAD (pBAD) is anti-apoptotic by leaving BCL-2 free to inhibit BAX-triggered apoptosis.
as §1
Flow Cytometry (FACS). Cells were harvested and examined for the expression of cell surface biomarkers (CD) and intracellular proteins by multichromatic FACS as previously described. About 1×10^4˜10^6 cells in 100 μl FACS buffer (PBS containing 1% FBS and 0.05% sodium azide) were stained with various fluorescence-conjugated antibodies specific for the desired cell surface proteins at 4° C. for 30 min. The surface-stained cells were then fixed and permeabilized using the appropriate reagents (e.g. the BD Pharmingen Cytofix/Cytoperm buffer) and stained with different fluorescence-conjugated antibodies specific for the desired intracellular proteins at 4° C. for 2 hours in the permeabilizing buffer (e.g. the BD Perm/Wash buffer). Concentrations of the Abs were used per the manufacturers' recommendations. Finally, the cells were washed twice in the permeabilizing buffer and twice in the FACS buffer before being analyzed on the BD FACSAria II. Data was analyzed using the FlowJo software (Tree Star Inc., Ashland, OR).

[3] = MV4-11, 3 days after TKI treatment, vs control non-treatment cells
[4] = MV4-11, 10 days after TKI treatment, vs non-treatment control
[5] = MV4-11, 28 days after the treatment
[6] = MV4-11, 28 days after the treatment, vs control non-treatment cells
[7] = MV4-11, 10 days after TKI treatment
[8] = MV4-11, 20 days after TKI treatment
[9] = MV4-11, 28 days after TKI treatment
[10] = MV4-11, 3 days after TKI treatment, vs control

Compound	BAD mRNA increase [1, 3]	BAX mRNA increase [1, 3]	BCL-2 mRNA increase [1, 3]	JAK2 mRNA increase [1, 3]	PIAS2 mRNA increase [1, 3]	PIM2 mRNA increase [1, 3]	PIM3 mRNA increase [1, 3]	SHP1 mRNA increase [1, 3]	SHP2 mRNA increase [1, 3]	SOCS1 mRNA increase [1, 3]	SOCS3 mRNA increase [1, 3]	STAT2 mRNA increase [1, 3]	STAT4 mRNA increase [1, 3]	TYK2 mRNA increase [1, 3]	population of viable CD44+pBAD+ cells [2, 7]	population of viable Ki67+CD33+CD44+ cells [2, 7]	population of viable CD44+pBAD+ cells [2, 8]	population of viable Ki67+CD33+CD44+ cells [2, 8]	further results
CC(C)(C)c1cc(NC(=O)Nc2ccc(-c3cn4c(n3)sc3cc(OCCN5CCOCC5)ccc34)cc2)no1 [QUIZ, Quizartinib]	16 fold	44 fold	31 fold	6 fold	about 2 fold	120 fold	81 fold	about 3 fold	5 fold	88 fold	120 fold	6 fold	19 fold	46 fold	93.1%	68.2%	20.7%	52.8%	PIM1 mRNA decrease [1, 3]: 0.5 fold; PIAS2 mRNA increase [1, 4]: 570 fold; PIM2 mRNA increase [1, 4]: 355 fold; PIM3 mRNA increase [1, 4]: 494 fold; SHP2 mRNA increase [1, 4]: 9 fold; SOCS1 mRNA increase [1, 4]: 615 fold; SOCS3 mRNA increase [1, 4]: 590 fold; STAT2 mRNA increase [1, 4]: 14 fold; STAT4 mRNA increase [1, 4]: 28 fold; TYK2 mRNA increase [1, 4]: 73 fold; PIM2 mRNA increase [1, 5]: about 2 fold; PIM3 mRNA increase [1, 5]: about 2 fold; CISH mRNA increase [1, 6]: about 2 fold; SOCS1 mRNA increase [1, 6]: ~4 fold; SOCS3 mRNA increase [1, 6]: about 2 fold; population of viable CD44+pBAD+ cells [2, 9]: 0.24%; population of viable Ki67+CD33+CD44+ cells [2, 9]: 1.58%
CCc1nc(C(N)=O)c(Nc2ccc(N3CCC(N4CCN(C)CC4)CC3)c(OC)c2)nc1NC1CCOCC1 [GILT, Gilteritinib]	23 fold	68 fold	49 fold	6 fold	about 2 fold	203 fold	134 fold	about 4 fold	9 fold	153 fold	182 fold	9 fold	23 fold	71 fold	28.7%	17.4%	1.1%	1.27%	NFκB2 mRNA increase ([1]; MV4-11, 80 nM TKI, vs non-treated control): 110 fold; CXCR2 mRNA increase ([1]; MV4-11, 3 days after TKI treatment): 109 fold; AKT1 mRNA increase [1, 10]: 10 fold; PRKACA mRNA increase [1, 10]: 15 fold; STAT3 mRNA increase [1, 3]: 2 fold; STAT5A mRNA increase [1, 3]: 4 fold; CXCR1 mRNA increase ([1]; MV4-11, 3 days after TKI treatment, data not shown): about 90 fold
